Experiment [1] has as its target T1, long isoform of human D2 receptor (Homo sapiens, UniProt P14416). As to the kind of experiment: Arrestin Antagonist Assay (DRD2L PathHunter CHO-K1 cells, vs EC80 dopamine). To be noted: for Emax: CHO-K1, read-out: β-arrestin (antagonist mode) Imax.
Method: Cell Lines: Activities of the compounds were assessed using a Chinese Hamster Ovary (CHO—K1) cell line that recombinantly expressed the long isoform of human D2 receptor (DRD2L PathHunter cells). The D2 receptor DNA sequence was modified to contain a “ProLink” at its C-terminus which allowed complementation with an “enzyme acceptor” (EA)-tagged β-arrestin protein. The recruitment of the O-arrestin by the D2 receptor led to complementation of the ProLink and EA and formation of active β-galactosidase which generated a D2-specific signal that was measured.
Arrestin Antagonist Assay: One day prior to testing, a vial of high density stock of DRD2L PathHunter cells was thawed, and 1×10^7 cells diluted into 40 mL of growth media (Ham's F12/10% HI FBS/1% PSG). 20 μL cells per well were seeded directly into assay plates, and the plates were allowed to rest for 1 h at RT before incubating in a plate incubator overnight.
The plate was incubated for 30 min at 37° C. 15 μL PathHunter detection reagent was added to each well of the assay plate, which was then covered and incubated for 1 h at RT. The plate was read on an Envision reader using the Luminescence protocol, and the data were exported for analysis.
The IC50 values (concentration producing a half-maximal inhibitory response) were determined by non-linear regression analysis of the concentration-response curves.
In experiment [2] the target is T1, long isoform of human D2 receptor. As to the kind of experiment: cAMP HTRF Agonist Assay (DRD2L PathHunter CHO-K1 cells, forskolin-stimulated). Conditions: for Emax: CHO-K1, read-out: cAMP (agonist mode) Emax. A general note: In TR-FRET formats the signal depends on donor and acceptor labels being close together.
Method: Cell Lines: Activities of the compounds were assessed using a Chinese Hamster Ovary (CHO—K1) cell line that recombinantly expressed the long isoform of human D2 receptor (DRD2L PathHunter cells). The D2 receptor DNA sequence was modified to contain a “ProLink” at its C-terminus which allowed complementation with an “enzyme acceptor” (EA)-tagged β-arrestin protein. The recruitment of the O-arrestin by the D2 receptor led to complementation of the ProLink and EA and formation of active β-galactosidase which generated a D2-specific signal that was measured. The cAMP assay was measured in the same D2-expressing cell line. The D2 receptor inhibited cAMP formation so that the basal levels of cAMP were increased by the addition of an adenylate cyclase stimulator, forskolin.
cAMP HTRF Agonist Assay: Two days prior to testing, a vial of high density stock of DRD2L PathHunter cells was thawed, and cells were diluted into 10 mL of growth media (Ham's F12/10% HI FBS/1% PSG) and used to seed a T225 flask containing 50 mL of growth media. Cells were cultured for 2 days.
On the day of the assay, cells were dissociated in 5 mL cell dissociation buffer (enzyme free—Invitrogen) for 10-15 minutes at 37° C. Dissociated cells were diluted with 10 mL of growth media and counted. Cell counts were routinely ˜2×10^7 per T225. Cells were then pelleted at 1500 rpm for 5 min. Supernatant was aspirated, and cells were re-suspended in HBSS/20 mM Hepes, pH 7.4 to a cell density of 1×10^6/mL.
cAMP levels were determined using the Cisbio HTRF method. HRTF reagents (cAMP-HTRF acceptor fluorophore (d2) conjugate and cryptate-labeled anti-cAMP antibody) were prepared according to maunfacturers instructions. 5 μL of each were added to each well of an assay plate and incubated for 1 h at RT. The plate was then read on an Envision reader using the HTRF protocol, and data were exported for analysis.
The agonist Emax results were expressed as a percent of the dopamine control response ((measured specific response/control specific agonist response)×100) obtained in the presence of test article. The EC50 values (concentration producing a half-maximal specific response) were determined by non-linear regression analysis of the concentration-response curves.
For experiment [3] the target is unchanged. Briefly: Arrestin Agonist Assay (DRD2L PathHunter CHO-K1 cells, β-arrestin recruitment). To be noted: for Emax: CHO-K1, read-out: β-arrestin (agonist mode) Emax. For orientation: Activated receptors often draw arrestin, which recruitment assays turn into a signal.

The IC50 is the concentration that gives 50% inhibition. High values mean weaker potency, low ones greater potency. Usually EC50 stands for the concentration that produces a half-maximal response. A high value points to weaker potency.

T1 sequence (P14416 whole entry, canonical isoform): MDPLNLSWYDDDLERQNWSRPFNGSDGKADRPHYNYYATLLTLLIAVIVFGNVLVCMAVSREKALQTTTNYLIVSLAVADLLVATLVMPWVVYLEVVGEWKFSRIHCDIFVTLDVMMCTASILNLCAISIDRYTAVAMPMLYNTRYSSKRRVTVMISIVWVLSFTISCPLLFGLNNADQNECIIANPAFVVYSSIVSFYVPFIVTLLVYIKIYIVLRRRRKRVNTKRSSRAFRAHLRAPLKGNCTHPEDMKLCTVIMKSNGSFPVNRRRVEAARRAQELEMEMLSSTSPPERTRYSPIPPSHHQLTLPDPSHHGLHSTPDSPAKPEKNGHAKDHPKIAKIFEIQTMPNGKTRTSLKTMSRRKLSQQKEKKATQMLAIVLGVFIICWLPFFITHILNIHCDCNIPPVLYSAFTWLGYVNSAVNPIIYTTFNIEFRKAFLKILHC

With `COc1ccc(-n2cc3c(n2)CCN(CCCCOc2ccc4c(c2)NC(=O)CC4)C3)cc1` [Compound 39, 7-(4-(2-(4-methoxyphenyl)-6,7-dihydro-2H-pyrazolo[4,3-c]pyridin-5(4H)-yl)butoxy)-3,4-dihydroquinolin-2(1H)-one], in experiment [1], the concentration for half-maximal inhibition (IC50) lay within 1000 to 10000 nM and the Emax is over 75%. Further, in experiment [2], the IC50 was over 10000 nM and the Emax is under 10%. For the same compound, in experiment [3], the EC50 was over 10000 nM and the Emax is under 10%.
With `CC(=O)Nc1cccc(OCCCCN2CCc3ccccc3C2)n1` [Compound 40, N-(6-(4-(3,4-dihydroisoquinolin-2(1H)-yl)butoxy)pyridin-2-yl)acetamide], in experiment [1], the IC50 fell in the range of 100 to 1000 nM and the Emax is over 75%. Besides, in experiment [2], the half-maximal inhibitory concentration (IC50) was over 10000 nM and the Emax was under 10%. In addition, in experiment [3], the half-maximal effective concentration (EC50) is over 10000 nM and the Emax was under 10%.
With `CCC(=O)Nc1cccc(OCCCCN2CCc3ccccc3C2)n1` [Compound 41, N-(6-(4-(3,4-dihydroisoquinolin-2(1H)-yl)butoxy)pyridin-2-yl)-propionamide], in experiment [1], the half-inhibitory concentration (IC50) fell in the range of 100 to 1000 nM and the Emax is over 75%. For the same compound, in experiment [2], the IC50 was over 10000 nM and the Emax is under 10%. Moreover, in experiment [3], the EC50 is over 10000 nM and the Emax is under 10%.
On to `CS(=O)(=O)Nc1cccc(OCCCCN2CCc3ccccc3C2)n1` [Compound 42, N-(6-(4-(3,4-dihydroisoquinolin-2(1H)-yl)butoxy)pyridin-2-yl)methanesulfonamide], for which the IC50 is 1000 to 10000 nM in experiment [1] and over 10000 nM in experiment [2]. For the same compound, the Emax in experiment [1] is over 75%; in experiment [2], under 10%; in experiment [3] it was under 10%. Further, the 50% effective concentration (EC50) in experiment [3] was over 10000 nM.
`CCS(=O)(=O)Nc1cccc(OCCCCN2CCc3ccccc3C2)n1` [Compound 43, N-(6-(4-(3,4-dihydroisoquinolin-2(1H)-yl)butoxy)pyridin-2-yl)-ethanesulfonamide]: in experiment [1], the IC50 is 100 to 1000 nM and the Emax was over 75%. Moreover, in experiment [2], the IC50 was over 10000 nM and the Emax is under 10%. In experiment [3], the EC50 is over 10000 nM and the Emax was under 10%.
Take `c1cc(OCCCCN2CCc3ccccc3C2)nc(-c2cc[nH]n2)c1` [Compound 44, 2-(4-((6-(1H-pyrazol-3-yl)pyridin-2-yl)oxy)butyl)-1,2,3,4-tetrahydroisoquinoline]: the IC50 in experiment [1] is 10 to 100 nM; in experiment [2], under 10 nM. The values for the Emax in experiment [1], in experiment [2] and in experiment [3] were over 75%, 10 to 25% and 10 to 25%, respectively. For the same compound, in experiment [3], the EC50 is under 10 nM.
On to `Clc1cccc2c1CCN(CCCCOc1cccc(-c3cc[nH]n3)n1)C2` [Compound 45, 2-(4-((6-(1H-pyrazol-3-yl)pyridin-2-yl)oxy)butyl)-5-chloro-1,2,3,4-tetrahydroisoquinoline], for which the IC50 in experiment [1] was over 10000 nM; in experiment [2], under 10 nM. Also, the Emax in experiment [1] was under 10%; in experiment [2], over 75%; in experiment [3], over 75%. This compound also had a half-maximal effective concentration (EC50) in experiment [3] of 10 to 100 nM.
On to `Clc1cccc(N2CCN(CCCCOc3cccc(-c4cc[nH]n4)n3)CC2)c1Cl` [Compound 46, 1-(4-((6-(1H-pyrazol-3-yl)pyridin-2-yl)oxy)butyl)-4-(2,3-dichlorophenyl)piperazine], for which, in experiment [1], the IC50 is under 10 nM and the Emax was 50 to 75%. For the same compound, in experiment [2], the 50% inhibitory concentration (IC50) is under 10 nM and the Emax lay within 50 to 75%. In experiment [3], the EC50 was under 10 nM and the Emax lay within 10 to 25%.
As for `COc1cccnc1N1CCN(CCCCOc2cccc(-c3cc[nH]n3)n2)CC1` [Compound 47, 1-(4-((6-(1H-pyrazol-3-yl)pyridin-2-yl)oxy)butyl)-4-(3-methoxypyridin-2-yl)piperazine], in experiment [1], the concentration for half-maximal inhibition (IC50) is under 10 nM and the Emax is 50 to 75%. For the same compound, in experiment [2], the IC50 is under 10 nM and the Emax is 50 to 75%. In experiment [3], the EC50 is under 10 nM and the Emax is 10 to 25%.
Turning to `N#Cc1cccnc1N1CCN(CCCCOc2cccc(-c3cc[nH]n3)n2)CC1` [Compound 48, 2-(4-(4-((6-(1H-pyrazol-3-yl)pyridin-2-yl)oxy)butyl)piperazin-1-yl)nicotinonitrile], in experiment [1], the IC50 fell in the range of 10 to 100 nM and the Emax lay within 25 to 50%. Further, in experiment [2], the IC50 was under 10 nM and the Emax is over 75%. Also, in experiment [3], the EC50 was under 10 nM and the Emax lay in the range of 25 to 50%.
With `CCOc1ccccc1N1CCN(CCCCOc2cccc(-c3cc[nH]n3)n2)CC1` [Compound 49, 1-(4-((6-(1H-pyrazol-3-yl)pyridin-2-yl)oxy)butyl)-4-(2-ethoxyphenyl)piperazine], in experiment [1], the IC50 is under 10 nM and the Emax lay in the range of 50 to 75%. Further, in experiment [2], the 50% inhibitory concentration (IC50) is under 10 nM and the Emax is 50 to 75%. Further, in experiment [3], the EC50 was under 10 nM and the Emax lay in the range of 10 to 25%.
`Clc1ccccc1N1CCN(CCCCOc2cccc(-c3cc[nH]n3)n2)CC1` [Compound 50, 1-(4-((6-(1H-pyrazol-3-yl)pyridin-2-yl)oxy)butyl)-4-(2-chlorophenyl)piperazine]: in experiment [1], the IC50 was under 10 nM and the Emax lay in the range of 50 to 75%. In addition, in experiment [2], the concentration for half-maximal inhibition (IC50) was under 10 nM and the Emax was 50 to 75%. For the same compound, in experiment [3], the EC50 is under 10 nM and the Emax was in the range of 25 to 50%.
For `c1cc(OCCCCN2CCc3ccccc3C2)nc(-c2c[nH]cn2)c1` [Compound 51, 2-(4-((6-(1H-imidazol-4-yl)pyridin-2-yl)oxy)butyl)-1,2,3,4-tetrahydroisoquinoline], in experiment [1], the IC50 was in the range of 100 to 1000 nM and the Emax is over 75%. Also, in experiment [2], the concentration for half-maximal inhibition (IC50) is over 10000 nM and the Emax was under 10%. In addition, in experiment [3], the concentration giving a half-maximal response (EC50) was over 10000 nM and the Emax is under 10%.
Take `O=c1ccc2ccc(OCCCCN3CCc4ccccc4C3)nc2[nH]1` [Compound 52, 7-(4-(3,4-dihydroisoquinolin-2(1H)-yl)butoxy)-1,8-naphthyridin-2(1H)-one]: in experiment [1], the IC50 fell in the range of 10 to 100 nM and the Emax was over 75%. In experiment [2], the IC50 was under 10 nM and the Emax was in the range of 50 to 75%. In addition, in experiment [3], the EC50 was under 10 nM and the Emax lay in the range of 10 to 25%.
With `O=c1ccc2ccc(OCCCCN3CCc4sccc4C3)nc2[nH]1` [Compound 53, 7-(4-(6,7-dihydrothieno[3,2-c]pyridin-5(4H)-yl)butoxy)-1,8-naphthyridin-2(1H)-one], in experiment [1], the IC50 was 10 to 100 nM and the Emax is over 75%. In addition, in experiment [2], the IC50 was under 10 nM and the Emax fell in the range of 10 to 25%. Further, in experiment [3], the half-maximal effective concentration (EC50) was over 10000 nM and the Emax was under 10%.
Regarding `O=c1ccc2ccc(OCCCCN3CCc4ccsc4C3)nc2[nH]1` [Compound 54, 7-(4-(4,5-dihydrothieno[2,3-c]pyridin-6(7H)-yl)butoxy)-1,8-naphthyridin-2(1H)-one], in experiment [1], the IC50 is under 10 nM and the Emax is over 75%. Moreover, in experiment [2], the 50% inhibitory concentration (IC50) is over 10000 nM and the Emax was under 10%. In experiment [3], the concentration for a half-maximal effect (EC50) was over 10000 nM and the Emax was under 10%.

These data come from patent publication US9951088B2, “D2 receptor modulators and methods of use thereof in the treatment of diseases and disorders” (SUNOVION PHARMACEUTICALS INC., priority 2012, dated 2018).
